Test results published in the NIST ThermoML archive (doi:10.1016/j.jct.2012.03.003).

Experiment: xn = mol fraction of the nth substance listed
Settings: Liquid, Vibrating tube method

COc1cc2c(cc1O)CC1c3c(cc(O)c(OC)c3-2)CCN1C (stereo not given) [boldine] + CCO
Settings | mass density [kg/m3]
352.81 K, 16000 kPa, x1 = 0.0012 | 755.72
352.81 K, 16000 kPa, x1 = 0.0136 | 781.95
352.81 K, 17000 kPa, x1 = 0.0012 | 756.73
352.81 K, 17000 kPa, x1 = 0.0136 | 782.94
352.81 K, 18000 kPa, x1 = 0.0012 | 757.73
352.81 K, 18000 kPa, x1 = 0.0136 | 783.9
352.81 K, 19000 kPa, x1 = 0.0012 | 758.72
352.81 K, 19000 kPa, x1 = 0.0136 | 784.85
352.81 K, 20000 kPa, x1 = 0.0012 | 759.69
352.81 K, 20000 kPa, x1 = 0.0136 | 785.8
352.82 K, 1000 kPa, x1 = 0.0267 | 792.92
352.82 K, 2000 kPa, x1 = 0.0267 | 794.02
352.82 K, 3000 kPa, x1 = 0.0267 | 795.11
352.82 K, 4000 kPa, x1 = 0.0267 | 796.19
352.82 K, 5000 kPa, x1 = 0.0267 | 797.27
352.82 K, 6000 kPa, x1 = 0.0267 | 798.34
352.82 K, 7000 kPa, x1 = 0.0267 | 799.39
352.82 K, 8000 kPa, x1 = 0.0267 | 800.44
352.82 K, 9000 kPa, x1 = 0.0267 | 801.49
352.82 K, 10000 kPa, x1 = 0.0267 | 802.51
352.82 K, 11000 kPa, x1 = 0.0267 | 803.53
352.82 K, 12000 kPa, x1 = 0.0267 | 804.54
352.82 K, 13000 kPa, x1 = 0.0267 | 805.54
352.82 K, 14000 kPa, x1 = 0.0267 | 806.51
352.82 K, 15000 kPa, x1 = 0.0267 | 807.49
352.82 K, 16000 kPa, x1 = 0.0267 | 808.44
352.82 K, 17000 kPa, x1 = 0.0267 | 809.38
352.82 K, 18000 kPa, x1 = 0.0267 | 810.32
352.82 K, 19000 kPa, x1 = 0.0267 | 811.24
352.82 K, 20000 kPa, x1 = 0.0267 | 812.14
352.88 K, 1000 kPa, x1 = 0.0074 | 751.94
352.88 K, 2000 kPa, x1 = 0.0074 | 753.18
352.88 K, 3000 kPa, x1 = 0.0074 | 754.29
352.88 K, 4000 kPa, x1 = 0.0074 | 755.45
352.88 K, 5000 kPa, x1 = 0.0074 | 756.6
352.88 K, 6000 kPa, x1 = 0.0074 | 757.75
352.88 K, 7000 kPa, x1 = 0.0074 | 758.88
352.88 K, 8000 kPa, x1 = 0.0074 | 760.01
352.88 K, 9000 kPa, x1 = 0.0074 | 761.12
352.88 K, 10000 kPa, x1 = 0.0074 | 762.21
352.88 K, 11000 kPa, x1 = 0.0074 | 763.3
352.88 K, 12000 kPa, x1 = 0.0074 | 764.38
352.88 K, 13000 kPa, x1 = 0.0074 | 765.43
352.88 K, 14000 kPa, x1 = 0.0074 | 766.48
352.88 K, 15000 kPa, x1 = 0.0074 | 767.51
352.88 K, 16000 kPa, x1 = 0.0074 | 768.53
352.88 K, 17000 kPa, x1 = 0.0074 | 769.53
352.88 K, 18000 kPa, x1 = 0.0074 | 770.52
352.88 K, 19000 kPa, x1 = 0.0074 | 771.48
352.88 K, 20000 kPa, x1 = 0.0074 | 772.43
362.76 K, 1000 kPa, x1 = 0.0196 | 770.85
362.76 K, 2000 kPa, x1 = 0.0196 | 772.05
362.76 K, 3000 kPa, x1 = 0.0196 | 773.24
362.76 K, 4000 kPa, x1 = 0.0196 | 774.43
362.76 K, 5000 kPa, x1 = 0.0196 | 775.6
362.76 K, 6000 kPa, x1 = 0.0196 | 776.76
362.76 K, 7000 kPa, x1 = 0.0196 | 777.92
362.76 K, 8000 kPa, x1 = 0.0196 | 779.06
362.76 K, 9000 kPa, x1 = 0.0196 | 780.2
362.76 K, 10000 kPa, x1 = 0.0196 | 781.28
362.76 K, 11000 kPa, x1 = 0.0196 | 782.39
362.76 K, 12000 kPa, x1 = 0.0196 | 783.48
362.76 K, 13000 kPa, x1 = 0.0196 | 784.55
362.76 K, 14000 kPa, x1 = 0.0196 | 785.61
362.76 K, 15000 kPa, x1 = 0.0196 | 786.65
362.76 K, 16000 kPa, x1 = 0.0196 | 787.68
362.76 K, 17000 kPa, x1 = 0.0196 | 788.71
362.76 K, 18000 kPa, x1 = 0.0196 | 789.69
362.76 K, 19000 kPa, x1 = 0.0196 | 790.66
362.76 K, 20000 kPa, x1 = 0.0196 | 791.63
362.77 K, 1000 kPa, x1 = 0.0136 | 755.74
362.77 K, 1000 kPa, x1 = 0.0267 | 783.02
362.77 K, 2000 kPa, x1 = 0.0136 | 756.99
362.77 K, 2000 kPa, x1 = 0.0267 | 784.19
362.77 K, 3000 kPa, x1 = 0.0136 | 758.22
362.77 K, 3000 kPa, x1 = 0.0267 | 785.37
362.77 K, 4000 kPa, x1 = 0.0136 | 759.44
362.77 K, 4000 kPa, x1 = 0.0267 | 786.53
362.77 K, 5000 kPa, x1 = 0.0136 | 760.66
362.77 K, 5000 kPa, x1 = 0.0267 | 787.67
362.77 K, 6000 kPa, x1 = 0.0136 | 761.86
362.77 K, 6000 kPa, x1 = 0.0267 | 788.81
362.77 K, 7000 kPa, x1 = 0.0136 | 763.05
362.77 K, 7000 kPa, x1 = 0.0267 | 789.94
362.77 K, 8000 kPa, x1 = 0.0136 | 764.22
362.77 K, 8000 kPa, x1 = 0.0267 | 791.05
362.77 K, 9000 kPa, x1 = 0.0136 | 765.39
362.77 K, 9000 kPa, x1 = 0.0267 | 792.16
362.77 K, 10000 kPa, x1 = 0.0136 | 766.54
362.77 K, 10000 kPa, x1 = 0.0267 | 793.25
362.77 K, 11000 kPa, x1 = 0.0136 | 767.67
362.77 K, 11000 kPa, x1 = 0.0267 | 794.34
362.77 K, 12000 kPa, x1 = 0.0136 | 768.79
362.77 K, 12000 kPa, x1 = 0.0267 | 795.38
362.77 K, 13000 kPa, x1 = 0.0136 | 769.9
362.77 K, 13000 kPa, x1 = 0.0267 | 796.43
362.77 K, 14000 kPa, x1 = 0.0136 | 770.98
362.77 K, 14000 kPa, x1 = 0.0267 | 797.48
362.77 K, 15000 kPa, x1 = 0.0136 | 772.08
362.77 K, 15000 kPa, x1 = 0.0267 | 798.5
362.77 K, 16000 kPa, x1 = 0.0136 | 773.14
362.77 K, 16000 kPa, x1 = 0.0267 | 799.5
362.77 K, 17000 kPa, x1 = 0.0136 | 774.19
362.77 K, 17000 kPa, x1 = 0.0267 | 800.5
362.77 K, 18000 kPa, x1 = 0.0136 | 775.2
362.77 K, 18000 kPa, x1 = 0.0267 | 801.48
362.77 K, 19000 kPa, x1 = 0.0136 | 776.22
362.77 K, 19000 kPa, x1 = 0.0267 | 802.44
362.77 K, 20000 kPa, x1 = 0.0136 | 777.21
362.77 K, 20000 kPa, x1 = 0.0267 | 803.41
362.78 K, 1000 kPa, x1 = 0.0012 | 728.71
362.78 K, 2000 kPa, x1 = 0.0012 | 730.01
362.78 K, 3000 kPa, x1 = 0.0012 | 731.31
362.78 K, 4000 kPa, x1 = 0.0012 | 732.6
362.78 K, 5000 kPa, x1 = 0.0012 | 733.87
362.78 K, 6000 kPa, x1 = 0.0012 | 735.12
362.78 K, 7000 kPa, x1 = 0.0012 | 736.36
362.78 K, 8000 kPa, x1 = 0.0012 | 737.59
362.78 K, 9000 kPa, x1 = 0.0012 | 738.8
362.78 K, 10000 kPa, x1 = 0.0012 | 739.99
362.78 K, 11000 kPa, x1 = 0.0012 | 741.18
362.78 K, 12000 kPa, x1 = 0.0012 | 742.33
362.78 K, 13000 kPa, x1 = 0.0012 | 743.48
362.78 K, 14000 kPa, x1 = 0.0012 | 744.62
362.78 K, 15000 kPa, x1 = 0.0012 | 745.73
362.78 K, 16000 kPa, x1 = 0.0012 | 746.83
362.78 K, 17000 kPa, x1 = 0.0012 | 747.9
362.78 K, 18000 kPa, x1 = 0.0012 | 748.97
362.78 K, 19000 kPa, x1 = 0.0012 | 750.01
362.78 K, 20000 kPa, x1 = 0.0012 | 751.05
362.87 K, 1000 kPa, x1 = 0.0074 | 741.96
362.87 K, 2000 kPa, x1 = 0.0074 | 743.24
362.87 K, 3000 kPa, x1 = 0.0074 | 744.5
362.87 K, 4000 kPa, x1 = 0.0074 | 745.75
362.87 K, 5000 kPa, x1 = 0.0074 | 746.98
362.87 K, 6000 kPa, x1 = 0.0074 | 748.21
362.87 K, 7000 kPa, x1 = 0.0074 | 749.43
362.87 K, 8000 kPa, x1 = 0.0074 | 750.63
362.87 K, 9000 kPa, x1 = 0.0074 | 751.81
362.87 K, 10000 kPa, x1 = 0.0074 | 752.98
362.87 K, 11000 kPa, x1 = 0.0074 | 754.12
362.87 K, 12000 kPa, x1 = 0.0074 | 755.27
362.87 K, 13000 kPa, x1 = 0.0074 | 756.39
362.87 K, 14000 kPa, x1 = 0.0074 | 757.5
362.87 K, 15000 kPa, x1 = 0.0074 | 758.59
362.87 K, 16000 kPa, x1 = 0.0074 | 759.65
362.87 K, 17000 kPa, x1 = 0.0074 | 760.72
362.87 K, 18000 kPa, x1 = 0.0074 | 761.76
362.87 K, 19000 kPa, x1 = 0.0074 | 762.79
362.87 K, 20000 kPa, x1 = 0.0074 | 763.81
